From patent US5763404A, “Methods for using LHRH antagonists with low histamine release” (priority 1995, dated 1998)
Non-standard residues stand in square brackets, D forms with d. Residues, ends and D or L forms follow the SMILES beside them. *: point of attachment. dPhe(4-Cl) = N[C@H](Cc1ccc(Cl)cc1)C(=O)O; Pyrimidin2yl(4,6-Me2) = Cc1cc(C)nc(*)n1; d2Nal = N[C@H](Cc1ccc2ccccc2c1)C(=O)O; dLys(iPr) = CC(C)NCCCC[C@@H](N)C(=O)O; Lys(iPr) = CC(C)NCCCC[C@H](N)C(=O)O; NH(4-MeO-phenyl) = COc1ccc(N*)cc1; aIle = CC[C@@H](C)[C@H](N)C(=O)O; d3Pal = N[C@H](Cc1cccnc1)C(=O)O; Nicotinoyl = O=C(c1cccnc1)*; Picolinoyl = O=C(c1ccccn1)*; Orn = NCCC[C@H](N)C(=O)O; Nva = CCC[C@H](N)C(=O)O; Abu = CC[C@H](N)C(=O)O

System: anaesthesized rats
Assay: wheal test, intradermal injection
Type: in vivo, rat
Details: 10 ug peptide intradermally
Method in brief: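 Anaesthetized rats given intradermal injection of 10 ug peptide in 100 ul saline; area of the wheal calculated from its diameter.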

Wheal Area [mm^2 /10 μg]	Structure (SMILES)
95.3 ± 6.0	CCC[C@H](NC(=O)[C@@H](CCCCNC(=O)c1ccccn1)NC(=O)[C@H](CCCCNC(=O)c1ccccn1)NC(=O)[C@H](CO)NC(=O)[C@@H](Cc1cccnc1)NC(=O)[C@@H](Cc1ccc(Cl)cc1)NC(=O)[C@@H](Cc1ccc2ccccc2c1)NC(C)=O)C(=O)N[C@@H](CCCCNC(C)C)C(=O)N1CCC[C@H]1C(=O)N[C@H](C)C(N)=O [compound 25989] (Ac-[d2Nal][dPhe(4-Cl)][d3Pal]SK(Picolinoyl)[dK](Picolinoyl)[Nva][Lys(iPr)]P[dA]-NH2)
97.9 ± 2.9	CC[C@@H](C)[C@H](NC(=O)[C@@H](CCCCNC(=O)c1ccccn1)NC(=O)[C@H](CCCCNC(=O)c1ccccn1)NC(=O)[C@H](CO)NC(=O)[C@@H](Cc1cccnc1)NC(=O)[C@@H](Cc1ccc(Cl)cc1)NC(=O)[C@@H](Cc1ccc2ccccc2c1)NC(C)=O)C(=O)N[C@@H](CCCCNC(C)C)C(=O)N1CCC[C@H]1C(=O)N[C@H](C)C(N)=O [compound 25936] (Ac-[d2Nal][dPhe(4-Cl)][d3Pal]SK(Picolinoyl)[dK](Picolinoyl)[aIle][Lys(iPr)]P[dA]-NH2)
91.0 ± 5.4	CC[C@H](NC(=O)[C@@H](CCCCNC(=O)c1ccccn1)NC(=O)[C@H](CCCCNC(=O)c1ccccn1)NC(=O)[C@H](CO)NC(=O)[C@@H](Cc1cccnc1)NC(=O)[C@@H](Cc1ccc(Cl)cc1)NC(=O)[C@@H](Cc1ccc2ccccc2c1)NC(C)=O)C(=O)N[C@@H](CCCCNC(C)C)C(=O)N1CCC[C@H]1C(=O)N[C@H](C)C(N)=O [compound 25990] (Ac-[d2Nal][dPhe(4-Cl)][d3Pal]SK(Picolinoyl)[dK](Picolinoyl)[Abu][Lys(iPr)]P[dA]-NH2)

Same assay, conditions: Table I; 10 ug peptide intradermally

Wheal [mm^2 /10]	Structure (SMILES)
196.9 ± 4.1	CC(=O)N[C@H](Cc1ccc2ccccc2c1)C(=O)N[C@H](Cc1ccc(Cl)cc1)C(=O)N[C@H](Cc1cccnc1)C(=O)N[C@@H](CO)C(=O)N[C@@H](CCCCNC(=O)c1cccnc1)C(=O)N[C@H](CCCCNC(C)C)C(=O)N[C@@H](CC(C)C)C(=O)N[C@@H](CCCNC(=N)N)C(=O)N1CCC[C@H]1C(=O)N[C@H](C)C(N)=O [compound 24754] (Ac-[d2Nal][dPhe(4-Cl)][d3Pal]SK(Nicotinoyl)[dLys(iPr)]LRP[dA]-NH2)
123 ± 5.9	CC(=O)N[C@H](Cc1ccc2ccccc2c1)C(=O)N[C@H](Cc1ccc(Cl)cc1)C(=O)N[C@H](Cc1cccnc1)C(=O)N[C@@H](CO)C(=O)N[C@@H](CCCCNC(=O)c1cccnc1)C(=O)N[C@@H](CCCCNC(=O)c1cccnc1)C(=O)N[C@@H](CC(C)C)C(=O)N[C@@H](CCCCNC(C)C)C(=O)N1CCC[C@H]1C(=O)N[C@H](C)C(N)=O [compound 24934] (Ac-[d2Nal][dPhe(4-Cl)][d3Pal]SK(Nicotinoyl)K(Nicotinoyl)L[Lys(iPr)]P[dA]-NH2)

Second part, the compound before the results:

Structure (SMILES)	Wheal [mm^2 /10]
COc1ccc(NC(=O)CC[C@@H](NC(=O)[C@H](CCCCNC(=O)c2cccnc2)NC(=O)[C@H](CO)NC(=O)[C@@H](Cc2cccnc2)NC(=O)[C@@H](Cc2ccc(Cl)cc2)NC(=O)[C@@H](Cc2ccc3ccccc3c2)NC(C)=O)C(=O)N[C@@H](CC(C)C)C(=O)N[C@@H](CCCCNC(C)C)C(=O)N2CCC[C@H]2C(=O)N[C@H](C)C(N)=O)cc1 [compound 25588] (Ac-[d2Nal][dPhe(4-Cl)][d3Pal]SK(Nicotinoyl)[dE](NH(4-MeO-phenyl))L[Lys(iPr)]P[dA]-NH2)	113 ± 7
CC(=O)N[C@H](Cc1ccc2ccccc2c1)C(=O)N[C@H](Cc1ccc(Cl)cc1)C(=O)N[C@H](Cc1cccnc1)C(=O)N[C@@H](CO)C(=O)N[C@@H](CCCNc1nc(C)cc(C)n1)C(=O)N[C@H](CCCCNC(=O)c1cccnc1)C(=O)N[C@@H](CC(C)C)C(=O)N[C@@H](CCCCNC(C)C)C(=O)N1CCC[C@H]1C(=O)N[C@H](C)C(N)=O [compound 25506] (Ac-[d2Nal][dPhe(4-Cl)][d3Pal]S[Orn](Pyrimidin2yl(4,6-Me2))[dK](Nicotinoyl)L[Lys(iPr)]P[dA]-NH2)	110 ± 3
